Where a name gives a salt, the structure may show the parent alone.
Legend:
Type in all cases: physicochemical
[1] = Salt storage stability at 40° C. and 75% relative humidity (HPLC for acid degradation product of Formula (A)); conditions: stored under high temperature and humidity, for example 40° C. and 75% relative humidity
Experimental: The stability of the stability of the mono-saccharin (2 different batches), mono-trans-cinnamic acid, mono-succinic acid, mono-benzoic acid, difumaric acid, dixinafoic acid (di-1-hydroxy-2-naphthoic acid) and disaccharin salts of Compound (I) when stored at 40° C. and 75% relative humidity was measured as follows.
Approximately 30 mg of each salt was weighted into 4 mL screw cap vials, the vials closed and stored at 40° C./75% relative humidity with constant control of the environmental conditions. For every time point the samples were removed from the storage facility and analysed by HPLC for the presence of the acid degradation product of the Formula (A): […]
The HPLC analysis was performed using the following method:
A sample solution was prepared at approximately 0.1 to 0.2 mg/mL in the sample diluent, 0.03% trifluoroacetic acid in 50/50 v/v acetonitrile/water, using sonication as required. The following chromatographic conditions were applied: […]

[2] = Dynamic vapour sorption (DVS) hygroscopicity; conditions: at 80% relative humidity, weight change from 0% RH to 80% RH in second DVS cycle
Experimental: DVS analysis was performed using an SMS Dynamic Vapour Sorption DVS-Advantage instrument. The solid sample (approximately 1-5 mg) was placed into a platinum sample holder and the weight of the sample was recorded during a dual cycle step method (40 to 90 to 0 to 90 to 0% relative humidity (RH), in steps of 10% RH).
The responses of the mono-fumaric acid salt and the difumaric acid salt (Examples 15 and 19) to changes in humidity were investigated using DVS. The hygroscopicity was calculated as the relative change in weight of the sample between 0% RH at the start of the second cycle and 80% RH during the increase of humidity in the second cycle.
The hygroscopicity of a sample is dependent on factors in addition to the inherent properties of the pure solid form itself, for example the purity and the crystallinity of the sample will have some impact on the result.

[3] = Salt/lactose monohydrate blend storage stability at 40° C. and 75% relative humidity; conditions: mixtures of salt with lactose monohydrate; 40° C./75% relative humidity
Experimental: The storage stability of blends of lactose monohydrate with the mono-saccharin, mono-benzoic acid, difumaric acid and disaccharin salts of Compound (I) when stored at is 40° C. and 75% relative humidity was measured as follows.
Approximately 5 grams of each salt were micronised using a 1″ jet mill (MC One, Jetpharma, Balerna, Switzerland) with Nitrogen as the flow gas.
10 g of bulk lactose blend of each salt was prepared by the following method:
Micronised lactose monohydrate (9800 mg) was added to a 60 ml clear glass bottle. To this was added the micronised salt of compound (I) (200 mg) and a rubber stopper and aluminium screw cap used to close the bottle.
The bottle containing the salt and lactose monohydrate was placed in a trembling blender (Turbula T2C, W. Bachofen, Basel, Switzerland) blending vessel and the mixture blended for 10 minutes on speed 1 (30 rpm). A sample (2 g) of the lactose/salt blend was removed. The remaining of lactose/salt blend (8 g) was placed in a stability suite (controlled environmental conditions) at 40° C./75% relative humidity. The sample was temporarily removed from the storage facility for analysis. For each analysis 50 mg of the lactose/salt blend were dissolved in the sample diluents and analysed by HPLC for the compound of Formula (A) as described above in Example 23.

Row | Compound | solid state chemical stability on storage [1] | moisture uptake (hygroscopicity) [2] | stability in the presence of lactose monohydrate [3] | moisture uptake (hygroscopicity) ([2]; listed as difumaric acid salt of Compound (I))
1 | CCCCCNc1nc(N)nc(C)c1Cc1ccc(CC(=O)OCCCCN(C)C)cc1.O=C(O)c1ccccc1 [Example 1, 4-(Dimethylamino)butyl 2-(4-((2-amino-4-methyl-6-(pentylamino)pyrimidin-5-yl)methyl)phenyl)acetate benzoic acid salt] | good solid state chemical stability |  |  | 
2 | CCCCCNc1nc(N)nc(C)c1Cc1ccc(CC(=O)OCCCCN(C)C)cc1.O=C(O)/C=C/C(=O)O [Example 15, 4-(Dimethylamino)butyl 2-(4-((2-amino-4-methyl-6-(pentylamino)pyrimidin-5-yl)methyl)phenyl)acetate fumaric acid salt] |  | more than 2 % w/w |  | 
3 | CCCCCNc1nc(N)nc(C)c1Cc1ccc(CC(=O)OCCCCN(C)C)cc1.O=C(O)/C=C/C(=O)O [Example 19, 4-(Dimethylamino)butyl 2-(4-((2-amino-4-methyl-6-(pentylamino)pyrimidin-5-yl)methyl)phenyl)acetate difumaric acid salt] | good solid state chemical stability |  | particularly stable in the presence of lactose monohydrate | 0.2-2 % w/w
4 | CCCCCNc1nc(N)nc(C)c1Cc1ccc(CC(=O)OCCCCN(C)C)cc1 [disaccharin salt of Compound (I)] | good solid state chemical stability |  | particularly stable in the presence of lactose monohydrate | 

Source: patent US8476288B2, “Salts 756” (AstraZeneca AB, priority 2009, dated 2013)
